Source: patent EP0350742A1, “6-Merkaptopurines derivatives, their preparation and their use against retrovirus infections” (HOECHST AKTIENGESELLSCHAFT, priority 1988, dated 1990)

Legend:
Friend-Leukämie-Virus [1] = assay: Friend leukaemia virus (FLV) infection in the mouse, i.p. application (Tabelle I); format: in vivo, Maus; conditions: for rel. Milzgewicht: NMRI mice, treatment over 10 days starting 48 h after infection, spleen weighed day 14; for n* Anzahl überlebende Mäuse: groups of 10 mice
Excerpt: (§1) Blockierung der Reverse Transkriptase-(RT)-Aktivität untersucht wird, erscheint die Wahl eines solchen Ersatzmodelles gerechtfertigt. Im vorliegenden Fall wurde die Infektion der Maus mit dem Friend-Leukämie-Virus gewählt. Dazu wurden normale Labormäuse (NMRI = Naval Medical Research Institute) durch intravenöse Injektion mit Friend-Virus enthaltendem Mäuseserum infiziert. Bei den unbehandelten Kontrolltieren entwickelte sich als Symptom der Infektion innerhalb von 2 Wochen eine deutliche Vergrößerung von Milz und Leber. Die Behandlung erfolgte über 10 Tage, beginnend 48 Stunden nach der Infektion. Am 14. Versuchstag wurden die Tiere durch Luxation der Halswirbel getötet und geöffnet. Die Milz wurde entnommen und gewogen. Als Meßparameter der therapeutischen Wirksamkeit wurde das Milzgewicht der behandelten Tiere mit dem der unbehandelten Infektionskontrolle in Relation gesetzt.
Während bei uninfizierten ausgewachsenen Labormäusen (20 - 24 g Körpergewicht) die Milz etwa 1 % des Körpergewichtes oder weniger wog, erreichte bei infizierten Tieren die Milz am Ende des Versuchs etwa 10 % des Körpergewichts.
Tabelle I zeigt die Ergebnisse der Wirksamkeitstests bei der Friend-Leukämie-Virusinfektion in der Maus bei intraperitonealer Verabreichung der erfindungsgemäßen Verbindungen. Als Kontrolle diente eine Gruppe von Mäusen, die unbehandelt blieben.
Zum Vergleich wurde eine weitere Gruppe von Mäusen mit Suramin behandelt. Tabelle I verdeutlicht, daß die erfindungsgemäßen Verbindungen besser wirken als Suramin, bei vergleichbarer oder geringerer Beeinträchtigung des Hämaglobingehaltes des Blutes. Bei Verabreichung der erfindungsgemäßen Verbindungen überlebten alle Mäuse die Behandlung, wohingegen bei der Verabreichung von Suramin 3 von 10 Mäusen starben. Weiterhin war der Behandlungserfolg, erkennbar an der Verringerung der Milzschwellung, bei Verabreichung aller getesteten Verbindungen größer als bei der Verabreichung von Suramin.

[2] = Qualitative solubility noted in the preparation examples; format: physicochemical
Friend-Leukämie-Virus [3] = assay: Friend leukaemia virus (FLV) infection in the mouse, oral application via drinking water (Tabelle II); format: in vivo, Maus; conditions: for n* Anzahl überlebende Mäuse / Hg: oral; for Hg: haemoglobin content of blood
Excerpt: as §1, with “Bei den unbehandelten Kontrolltieren entwickelte sich als Symptom der Infektion innerhalb von 2 Wochen eine deutliche Vergrößerung von Milz und Leber.” left out

[4] = 0.05 mg/ml in drinking water, oral (10 x 0.17-0.18 mg/Maus)
[5] = 0.10 mg/ml in drinking water, oral (10 x 0.33-0.36 mg/Maus)
[6] = 0.50 mg/ml in drinking water, oral (10 x 1.67-1.77 mg/Maus)

Row | Structure (SMILES) | rel. Milzgewicht (Friend-Leukämie-Virus [1]; 10 x 0.1 mg/Maus i.p.) [% Körpergewicht] | rel. Milzgewicht (Friend-Leukämie-Virus [1]; 10 x 1.0 mg/Maus i.p.) [% Körpergewicht] | rel. Milzgewicht (Friend-Leukämie-Virus [3]; [4]) [% Körpergewicht] | rel. Milzgewicht (Friend-Leukämie-Virus [3]; [5]) [% Körpergewicht] | n* Anzahl überlebende Mäuse (Friend-Leukämie-Virus [3]; 0.05 mg/ml in drinking water) | n* Anzahl überlebende Mäuse (Friend-Leukämie-Virus [3]; 0.10 mg/ml in drinking water) | rel. Milzgewicht (Friend-Leukämie-Virus [3]; [6]) [% Körpergewicht] | also measured
1 | C=CCSc1ncnc2[nH]cnc12 [Präparat 3, 6-(2-propenyl)-mercaptopurin] | 5.86 ± 1.84 | 1.37 ± 0.38 | 4.52 ± 2.28 | 1.51 ± 1.26 |  |  |  | Löslichkeit in Alkohol, heißem Wasser und Polyethylenglykol [2]: leicht löslich; Löslichkeit in kaltem Wasser [2]: Schwer löslich
2 | c1cc(CSc2ncnc3[nH]cnc23)ccn1 [Präparat 1, 6-(4-pyridylmethyl)-mercaptopurin] | 5.23 ± 2.69 | 2.08 ± 0.44 | 7.01 ± 2.99 | 4.80 ± 2.74 | 10 | 10 | 1.66 ± 1.25 | n* Anzahl überlebende Mäuse (Friend-Leukämie-Virus [1]; 10 x 0.1 mg/Maus i.p.): 10; n* Anzahl überlebende Mäuse (Friend-Leukämie-Virus [1]; 10 x 1.0 mg/Maus i.p.): 10; Hg (Friend-Leukämie-Virus [1]; 10 x 1.0 mg/Maus i.p., haemoglobin content of blood): 13.2 g/ %; Löslichkeit in Wasser ([2]; free base): unlöslich; Löslichkeit in allen säurehaltigen Flüssigkeiten ([2]; free base): gut löslich; n* Anzahl überlebende Mäuse (Friend-Leukämie-Virus [3]; 0.50 mg/ml in drinking water): 10; Hg (Friend-Leukämie-Virus [3]; 0.50 mg/ml in drinking water): 11.3 g/%
3 | c1cncc(CSc2ncnc3[nH]cnc23)c1 [Präparat 2, 6-(3-Pyridylmethyl)-mercaptopurin] | 5.46 ± 3.32 | 1.84 ± 0.82 | 5.76 ± 2.72 | 1.46 ± 1.00 |  |  | 0.90 ±1.12 | 
4 | Cc1cn([C@H]2C[C@H](N=[N+]=[N-])[C@@H](CO)O2)c(=O)[nH]c1=O [AZT, Azidothymidin, reference compound] |  |  |  |  | 10 | 10 |  | Hg (Friend-Leukämie-Virus [3]; 0.05 mg/ml in drinking water): 14.1 g/%; Hg (Friend-Leukämie-Virus [3]; 0.10 mg/ml in drinking water): 12.7 g/%
5 | Cc1ccc(C(=O)Nc2ccc(S(=O)(=O)O)c3cc(S(=O)(=O)O)cc(S(=O)(=O)O)c23)cc1NC(=O)c1cccc(NC(=O)Nc2cccc(C(=O)Nc3cc(C(=O)Nc4ccc(S(=O)(=O)O)c5cc(S(=O)(=O)O)cc(S(=O)(=O)O)c45)ccc3C)c2)c1 [Suramin, reference compound] |  | 4.54 ± 1.86 |  |  |  |  |  | Mäuse starben (Friend-Leukämie-Virus [1]; in vivo, ip): 3; rel. Milzgewicht (Friend-Leukämie-Virus [3]; 10 x 1.00 mg/Maus i.p., comparison group within the Tabelle II experiment): 4.50 ± 2.22 % Körpergwicht
